Values of other authors in patent publication US20070269404A1, “Controlling Sugar Feeding Insects” (Westham Ltd., priority 2006, published 2007).

System: birds and mammals
Conditions: Williams et al. 2003

In the case of Spinosad, the “toxicity to birds and mammals” value is listed as “very little toxicity”.
